Measurements taken from PubChem BioAssay AID1963846 (Molecular Pharmacology Branch, DTP, NCI, 2024).

Tested on: 454973-116-R2-J3-PDC complex spheroid viability
Assay: Anticancer human tumor 454973-116-R2-J3-PDC patient-derived pancreatic carcinoma cell line growth inhibition [POLQ]
Conditions: for viability, T/C: stronger effect = lower value
Procedure: Multicellular complex tumor spheroid response to Polymerase (POL) inhibitors (novobiocin, ART-558, RP6685) in combination with a variety of drugs and investigational agents in selected tumor cell lines
The POL inhibitors (novobiocin, ART-558, and RP6685) were evaluated both individually and in combination with standard of care and investigational anticancer small molecules within a complex spheroid model of solid tumors. . Complex spheroids include a stromal component modeled by human endothelial cells (HUVEC) and fibroblasts modeled by human mesenchymal stem cells (MSCs). The concentration ranges selected for each drug and investigational agent were based upon clinically achievable concentrations if the clinical Cmax of the agent was known.
Compounds. The drugs and investigational agents: novobiocin (NSC847541), ART-558 (NSC835418), RP-6685 (NSC848927), peposertib (NSC802822), ceralasertib (NSC780249), elimusertib (NSC800525), camonsertib (NSC841442), AZD-1390 (NSC803789), olaparib (NSC753686), talazoparib (NSC767125), rucaparib (NSC756644), sotorasib (NSC818433), MRTX-1133 (NSC836407), SN-38 (NSC673596), topotecan (NSC609699), epotoside (NSC141540), doxorubicin (NSC123127), gemcitabine (NSC613327), 5-fluorouracil (NSC19893), paclitaxel (NSC125973), vemurafenib (NSC761431), MSA-2 (NSC828583), SN-011 (NSC837082), adavosertib (NSC754352), prexasertib (NSC758257), carboplatin (NSC241240) and oxaliplatin (NSC266046), were obtained from the National Cancer Institute (NCI) Developmental Therapeutics Program Chemical Repository (21). The FDA-approved anticancer drug set is available from the Developmental Therapeutics Program at https://dtp.cancer.gov/organization/dscb/obtaining/. […] The stock solutions were prepared in dimethyl sulfoxide (DMSO, Sigma-Aldrich, St. Louis, MO, cat. D2650), except for the platinum compounds which were prepared in saline (Quality Biological, Gaithersburg, MD, cat. 114-055-101), at 800-fold the tested concentration and stored at -70 degrees C prior to their use. All drugs and investigational agents were tested over a range starting from a high concentration at or near the clinical Cmax and decreasing in half-log increments. If the clinical Cmax for an agent had not been determined, the highest concentration tested was 10 microM, except for SN-38, which was tested at a high concentration of 1 microM.
Cell Culture. All cells were maintained in an incubator at 37 degrees C and 5% CO2 with 95% humidity. The PDC lines were cultured according to standard operating procedures established by the NCI PDMR (https://pdmr.cancer.gov). Table 3 of the manuscript, lists the cell lines along with the number of the three cell types plated to form the mct-spheroids and media for tumor cell growth. After thawing, all PDC lines, except 997537-175-T-J1-PDC and 415267-285-R-J2-PDC, were cultured in Matrigel-coated flasks prepared with a working solution of 1X Ham's F-12 nutrient mix, without supplementation (Thermo Fisher Scientific, cat. 11765054), 100 U/mL penicillin-streptomycin (Thermo Fisher Scientific, cat. 15140122), and 2.5% Matrigel (Corning Inc., Corning, NY, cat. 354248) for the first three passages. The two PDC lines 997537-175-T-J1-PDC and 415267-285-R-J2-PDC were cultured on uncoated flasks. The 857933-349-R-J2-PDC line was cultured in 6C/Colon 1B media containing advanced DMEM/F-12 (Thermo Fisher Scientific, cat. 12634028), 10 mM HEPES (Thermo Fisher Scientific, cat. 15630080), 1X GlutaMAX supplement (Thermo Fisher Scientific, cat. 35050061), 0.1 mg/mL primocin (InvivoGen, San Diego, CA, cat. ant-pm-2), 10% defined fetal bovine serum, heat inactivated (HyClone Laboratories Inc., Logan, UT, cat. SH30070.03HI), 50% L-WRN conditioned media (ATCC, cat. CRL-3276), 1.25 mM N-Acetyl-L-cysteine (Sigma-Aldrich, cat. A9165), 10 mM nicotinamide (Sigma-Aldrich, cat. N0636), 1X B-27 supplement (Thermo Fisher Scientific, cat. 17504044), 1X N-2 supplement (Thermo Fisher Scientific, cat. […]
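Further: spheroids exposed to drugs for seven days before measurement.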
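Wherever viability, T/C is given: percent viability relative to DMSO vehicle control wells taken as 100%.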

CC(C)n1c(=O)n(C)c2cnc3cc(F)c(-c4ccc(OCCCN5CCCCC5)nc4)cc3c21 + COC1C(OC(N)=O)C(O)C(Oc2ccc3c(O)c(NC(=O)c4ccc(O)c(CC=C(C)C)c4)c(=O)oc3c2C)OC1(C)C
IC50 (curve of first compound, second compound 0.0316 µM): > 10 µM
IC50 (curve of first compound, second compound 0.1 µM): > 10 µM
IC50 (curve of first compound, second compound 0.316 µM): > 10 µM
IC50 (curve of first compound, second compound 1 µM): > 10 µM
IC50 (curve of first compound, second compound 3.16 µM): > 10 µM
IC50 (curve of first compound, second compound 10 µM): > 10 µM
viability, T/C (second compound 0.0316 µM, first compound 0.0316 µM): 99.5%
viability, T/C (second compound 0.0316 µM, first compound 0.1 µM): 108%
viability, T/C (second compound 0.0316 µM, first compound 0.316 µM): 114%
viability, T/C (second compound 0.0316 µM, first compound 1 µM): 110%
viability, T/C (second compound 0.0316 µM, first compound 3.16 µM): 111%
viability, T/C (second compound 0.0316 µM, first compound 10 µM): 85.9%
viability, T/C (second compound 0.1 µM, first compound 0.0316 µM): 107%
viability, T/C (second compound 0.1 µM, first compound 0.1 µM): 112%
viability, T/C (second compound 0.1 µM, first compound 0.316 µM): 108%
viability, T/C (second compound 0.1 µM, first compound 1 µM): 114%
viability, T/C (second compound 0.1 µM, first compound 3.16 µM): 93.7%
viability, T/C (second compound 0.1 µM, first compound 10 µM): 95.6%
viability, T/C (second compound 0.316 µM, first compound 0.0316 µM): 115%
viability, T/C (second compound 0.316 µM, first compound 0.1 µM): 113%
viability, T/C (second compound 0.316 µM, first compound 0.316 µM): 113%
viability, T/C (second compound 0.316 µM, first compound 1 µM): 116%
viability, T/C (second compound 0.316 µM, first compound 3.16 µM): 105%
viability, T/C (second compound 0.316 µM, first compound 10 µM): 88%
viability, T/C (second compound 1 µM, first compound 0.0316 µM): 116%
viability, T/C (second compound 1 µM, first compound 0.1 µM): 107%
viability, T/C (second compound 1 µM, first compound 0.316 µM): 115%
viability, T/C (second compound 1 µM, first compound 1 µM): 112%
viability, T/C (second compound 1 µM, first compound 3.16 µM): 100%
viability, T/C (second compound 1 µM, first compound 10 µM): 93.8%
viability, T/C (second compound 3.16 µM, first compound 0.0316 µM): 118%
viability, T/C (second compound 3.16 µM, first compound 0.1 µM): 107%
viability, T/C (second compound 3.16 µM, first compound 0.316 µM): 112%
viability, T/C (second compound 3.16 µM, first compound 1 µM): 116%
viability, T/C (second compound 3.16 µM, first compound 3.16 µM): 106%
viability, T/C (second compound 3.16 µM, first compound 10 µM): 92.5%
viability, T/C (second compound 10 µM, first compound 0.0316 µM): 120%
viability, T/C (second compound 10 µM, first compound 0.1 µM): 103%
viability, T/C (second compound 10 µM, first compound 0.316 µM): 101%
viability, T/C (second compound 10 µM, first compound 1 µM): 107%
viability, T/C (second compound 10 µM, first compound 3.16 µM): 101%
viability, T/C (second compound 10 µM, first compound 10 µM): 84.9%

Nc1ccc(C#CCN(C(=O)Cc2ncc(C(F)(F)F)cc2C(F)(F)F)c2ccc(F)cc2)nn1
viability, T/C (compound 0.0316 µM): 109% [middle of 13 runs]
viability, T/C (compound 0.1 µM): 106% [middle of 13 runs]
viability, T/C (compound 0.316 µM): 107% [middle of 13 runs]
viability, T/C (compound 1 µM): 104% [middle of 13 runs]
viability, T/C (compound 3.16 µM): 105% [middle of 13 runs]
viability, T/C (compound 10 µM): 112% [middle of 13 runs]
IC50 (compound alone, run of 11/06/2023): > 10 µM
